From patent US4400517A, “Phosphoric esters derived from 1,2,4-triazole having an insecticidal, nematocidal and acaricidal action, and their preparation” (priority 1976, dated 1983)
Where two headings read alike, the source gives them in different places.

Assays:
Format in all cases: in vivo
Pieris brassicae = experiment: Biological activity on Pieris brassicae (Lepidoptera); conditions: 48 h
Description: (2) Biological activity on Pieris brassicae (Lepidotera)
Cut-off cauliflower leaves were sprinkled with an aqueous dispersion of the products under examination (see TABLE 5).
After drying, the leaves were infested with 5-day old larvae. The percentage of mortality of the larvae (untreated leaves=0) was determined after 48 hours from treatment.

[1] = test system: Leptinotarsa decemlineata; experiment: Biological activity on Leptinotarsa decemlineata (Coleoptera); conditions: 48 h, Table 5, read-out: Activity (mortality class), Leptinotarsa D.; for mortality at 0.005 %: 0.05%o; for mortality at 0.1 %: 1%o
Description: (3) Biological activity on Leptinotarsa decemlineata (Coleoptera)
Small potato plants grown in pots were infested with 4-day old larvae, and were then sprinkled with an aqueous dispersion of the products under examination (see Tables 4 and 5).
The mortality percentage (untreated small plants=0) was determined after 48 hours from treatment.

Culex pipiens = experiment: Biological activity on Culex pipiens larvae (Diptera); conditions: 24 h, Table 5, read-out: Activity (mortality class), Culex P. (larvae)
Description: (4) Biological activity on Culex pipiens (Diptera)
Into glasses containing an aqueous dispersion of the products under examination (see Tables 4 and 5) there were introduced mosquito larvae of third and fourth age.
The mortality percentage of the larvae (glasses containing pure water=0) was determined after 24 hours from treatment.

Tetranychus urticae = experiment: Biological activity on adults of Tetranychus urticae (Acari); conditions: 24 h, Table 5, read-out: Activity (mortality class), Tetranychus U. (adults); for mortality at 0.001 %: 0.01%o; for mortality at 0.1 %: 1%o
Description: (5) Biological activity on adults of Tetranychus urticae (Acari)
Discs of bean leaves were infested with adult acari and then sprinkled with an aqueous dispersion of the products under examination (see Tables 4 and 5).
The mortality percentage was determined after 24 hours from treatment (untreated leaf discs, mortality=0).

Spodoptera littoralis = experiment: Biological activity on Spodoptera littoralis (Lepidoptera); conditions: 48 h
Description: (7) Biological activity on Spodoptera littoralis (Lepidoptera)
Cut tobacco leaves were sprinkled with an aqueous dispersion of the products under examination (see Tables 4 and 5).
After drying, the leaves were infested with 5-day old larvae.
The percentage of mortality of the larvae was determined after 48 hours from treatment (untreated leaves, mortality=0).

Blatta orientalis = experiment: Biological activity on Blatta orientalis (Ortoptera); conditions: Blatta orientalis, 48 h, read-out: Activity (mortality class), Blatta O.
Description: (10) Biological activity on Blatta orientalis (Ortoptera)
The bottom and walls of glass crystallizers were treated uniformly with an acetonic solution of the products under examination (see Tables 4 and 5). After evaporation of the solvent, into each crystallizer were introduced ten 80-100 days old neanides. The crystallizers were then closed with a metal net cover. After 24 hours from the start of the treatment, the insects were transferred to similar untreated crystallizers, and there were appropriately nourished in conventional manner.
The percentage of mortality (untreated insects=0) was determined after 48 hours from the start of the treatment.

[2] = 0.01%o, Table 5, read-out: Activity (mortality class), Pieris B.
[3] = 1%o, Table 5, read-out: Activity (mortality class), Pieris B.
[4] = 1%o, Table 5, read-out: Activity (mortality class), Spodoptera L.
[5] = 0.05%o, Table 5, read-out: Activity (mortality class), Spodoptera L.
[6] = read-out: Activity (mortality class), Pieris B.
[7] = read-out: Activity (mortality class), Spodoptera L.

SMILES | mortality at 0.001 % (Pieris brassicae; [2]) | mortality at 0.1 % (Pieris brassicae; [3]) | mortality at 0.005 % [1] | mortality at 0.1 % [1] | mortality at 2 ppm (Culex pipiens) | mortality at 0.001 % (Tetranychus urticae) | mortality at 0.1 % (Tetranychus urticae) | mortality at 0.1 % (Spodoptera littoralis; [4]) | mortality at 1 g/m2 (Blatta orientalis; 1 g/m^2, Table 5) | mortality at 0.02 ppm (Culex pipiens) | mortality at 0.005 % (Spodoptera littoralis; [5]) | mortality at 0.01 g/m2 (Blatta orientalis; 0,01 g/m^2, Table 5) | other results
CCOP(=S)(OCC)Oc1nc(C2=C(Cl)CCCC2)nn1C [M 5338/89] | 10 to 69% | 100% | 10 to 69% | 100% | 100% | 70 to 99% | 100% | 100% | 100% | – | – | – | –
CCOP(=S)(OCC)Oc1nc(C=C(Cl)Cl)nn1CC [M 5349/40] | 100% | – | 100% | – | – | 100% | – | – | – | 100% | 100% | 70 to 99% | –
CCOP(=S)(OCC)Oc1nc(C(=O)c2ccccc2)nn1-c1ccccc1 [M 7480] | – | – | – | – | 10 to 69% | – | 100% | – | – | – | – | – | –
CCOP(=S)(OCC)Oc1nc(C(C)=O)nn1-c1ccccc1 [M 7650] | – | 100% | – | 0 to 9% | 100% | – | 100% | 70 to 99% | – | – | – | – | –
CCOP(=S)(OCC)Oc1nc(C(C)O)nn1-c1ccccc1 (stereo not drawn) [M 7853] | – | 100% | – | 100% | 100% | – | 100% | 100% | 10 to 69% | – | – | – | –
CCOP(=S)(OCC)Oc1nc(C(C)OC(C)=O)nn1-c1ccccc1 (stereo not drawn) [M 8084] | – | 100% | – | 100% | 100% | 10 to 69% | 100% | 100% | – | – | – | – | –
CCOP(=S)(OCC)Oc1nc(C(C)OC(=O)C=C(Cl)Cl)nn1-c1ccccc1 (stereo not drawn) [M 8086] | – | 100% | – | 100% | 100% | – | 100% | 100% | – | – | – | – | –
CCOP(=S)(OCC)Oc1nc(C(Br)=C(Br)Br)nn1C [M 8089, O,O-diethyl-O-(1-methyl-3-tribromovinyl-5-triazolyl)-thiophosphate] | – | 100% | – | 100% | 100% | – | 100% | 100% | 100% | – | – | – | –
CCOP(=S)(OCC)Oc1nc(C(C)N(C)C)nn1-c1ccccc1 (stereo not drawn) [M 8171] | – | – | – | – | 100% | – | 70 to 99% | – | – | – | – | – | –
CCOC(=O)c1nc(OP(=S)(OCC)OCC)n(-c2ccccc2)n1 [M 8257] | – | 70 to 99% | – | 10 to 69% | 70 to 99% | – | 70 to 99% | – | 10 to 69% | – | – | – | –
C=Cc1nc(OP(=S)(OCC)OCC)n(-c2ccccc2)n1 [M 8261] | – | 100% | – | 100% | 100% | – | 100% | 100% | 100% | – | – | – | –
CCOP(=S)(OCC)Oc1nc(C=C(Br)Br)nn1C [M 8308] | – | 100% | – | 100% | 100% | – | 100% | 100% | 100% | 100% | – | – | –
CCOP(=S)(OCC)Oc1nc(C=Cc2ccccc2)nn1C [M 8332] | 10 to 69% | 100% | – | 70 to 99% | 100% | – | 100% | 100% | 100% | – | – | 100% | –
CCOP(=S)(OCC)Oc1nc(C=C(Cl)Cl)nn1C(C)C [M 8450] | 100% | – | 10 to 69% | – | – | 100% | – | – | – | 100% | 100% | 70 to 99% | –
CCCCn1nc(C=C(Cl)Cl)nc1OP(=S)(OCC)OCC [M 8474] | 100% | – | 100% | – | – | 0 to 9% | – | – | – | 100% | 100% | 0 to 9% | –
CCCCn1nc(C=C(Cl)Cl)nc1OP(=S)(OC)OC [M 8477] | – | 100% | – | 100% | 100% | – | 100% | 100% | 100% | – | 10 to 69% | – | –
CCOP(=S)(OCC)Oc1nc(C=C(C)C)nn1C [M 8483] | – | – | 70 to 99% | – | – | 100% | – | – | – | 10 to 69% | 10 to 69% | – | mortality at 0.001 % (Pieris brassicae; [6]): 10 to 69%; mortality at 0.01 g/m2 (Blatta orientalis): 100%
CC=Cc1nc(OP(=S)(OCC)OCC)n(CCCC)n1 [M 8497] | 70 to 99% | – | 100% | – | – | 10 to 69% | – | – | – | 0 to 9% | 0 to 9% | 10 to 69% | –
CCOP(=S)(OCC)Oc1nc(C=C(Cl)Cl)nn1CC(C)C [M 8498] | 100% | – | 10 to 69% | – | – | 10 to 69% | – | – | – | 70 to 99% | 100% | 10 to 69% | –
COP(=S)(OC)Oc1nc(C=C(Cl)Cl)nn1C(C)C [M 8499] | 10 to 69% | – | 0 to 9% | – | – | 10 to 69% | – | – | – | 10 to 69% | 100% | 10 to 69% | –
CCCOP(=S)(OCCC)Oc1nc(C=C(Cl)Cl)nn1C(C)C [M 8500] | 10 to 69% | 100% | – | 100% | 70 to 99% | – | 10 to 69% | 10 to 69% | 0 to 9% | – | – | – | –
CCCC=C(CC)c1nc(OP(=S)(OCC)OCC)n(C)n1 [M 8591] | – | 100% | – | 100% | 100% | 100% | 100% | 100% | 100% | – | – | – | –
CCOP(=S)(OCC)Oc1nc(C=C(Cl)OC)nn1C [M 8592] | 100% | 100% | 100% | 100% | 100% | 100% | 100% | 100% | 100% | 10 to 69% | 100% | 100% | –
CCOP(=S)(OCC)Oc1nc(C=C(Cl)SC)nn1C [M 8805] | – | – | 100% | 100% | 100% | 100% | 100% | – | – | 100% | – | – | mortality at 0.001 % (Pieris brassicae; [6]): 10 to 69%; mortality at 0.1 % (Pieris brassicae; [6]): 100%; mortality at 0.005 % (Spodoptera littoralis; [7]): 100%; mortality at 0.1 % (Spodoptera littoralis; [7]): 100%; mortality at 0.01 g/m2 (Blatta orientalis): 10 to 69%; mortality at 1 g/m2 (Blatta orientalis): 100%
CCOP(=S)(OCC)Oc1nc(C=C(Cl)Cl)nn1Cc1ccccc1 [M 8827] | – | – | – | 100% | 100% | 10 to 69% | 100% | – | – | 10 to 69% | – | – | –
C#CCn1nc(C=C(Cl)Cl)nc1OP(=S)(OCC)OCC [M 8828] | – | 100% | – | 100% | 100% | 70 to 99% | 100% | – | 100% | 10 to 69% | – | – | –
CCOP(=S)(Oc1nc(C=C(Cl)Cl)nn1C)c1ccccc1 (stereo not drawn) [M 9579] | – | – | – | – | 100% | – | 100% | – | – | – | – | – | –
CCOP(=S)(Oc1nc(C=C(Cl)Cl)nn1C)N(C)C (stereo not drawn) [M 9643] | – | – | – | – | – | – | 100% | 100% | – | – | – | – | –
CCOP(=S)(OC)Oc1nc(C=C(Cl)Cl)nn1C (stereo not drawn) [M 9750] | – | – | 10 to 69% | 100% | 100% | 100% | 100% | 100% | 100% | 100% | 100% | 100% | –
